Laboratory results published in PubChem BioAssay (NCI).
“And” between values parts separate entries of the source, which are not always exact repeats. Equal entries are not always repeated.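 How tested: cells in 96-well plates exposed to compound for 48 hours at five concentrations. Abbreviation: GI50, concentration required for 50% inhibition of growth. TGI marks complete inhibition of growth.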

How the values were obtained:
Test in all cases: inhibition of tumour cell growth, NCI panel, 48 h
A498 renal = tested on: A498 renal
HCT-15 colon = tested on: HCT-15 colon
HT29 colon = tested on: HT29 colon
NCI-H226 lung = tested on: NCI-H226 lung
SF-295 CNS = tested on: SF-295 CNS
SK-MEL-2 melanoma = tested on: SK-MEL-2 melanoma
SN12C renal = tested on: SN12C renal
SW-620 colon = tested on: SW-620 colon
KM20L2 colon = tested on: KM20L2 colon
SNB-78 CNS = tested on: SNB-78 CNS

Compound | GI50 (A498 renal) | TGI (A498 renal) | GI50 (HCT-15 colon) | TGI (HCT-15 colon) | GI50 (HT29 colon) | TGI (HT29 colon) | GI50 (NCI-H226 lung) | TGI (NCI-H226 lung) | GI50 (SF-295 CNS) | TGI (SF-295 CNS) | GI50 (SK-MEL-2 melanoma) | TGI (SK-MEL-2 melanoma) | GI50 (SN12C renal) | TGI (SN12C renal) | GI50 (SW-620 colon) | TGI (SW-620 colon) | TGI (KM20L2 colon) | TGI (SNB-78 CNS)
Cn1ncc2c(N)nc(N3CCCCC3)nc21 | 18.5 µM | 42.9 µM | 26.2 µM | 82.5 µM | 22.5 µM | 68.6 µM | 22.1 µM | 48.3 µM | 26.5 µM | > 100 µM | 23 µM | 71.6 µM | 28.5 µM | 75.2 µM | 31 µM | > 100 µM | – | –
Cc1sc(C)c(Cc2c(C)sc(C)c2CCl)c1CCl | > 100 µM | > 100 µM | > 100 µM | > 100 µM | > 100 µM | > 100 µM | > 100 µM | > 100 µM | > 100 µM | > 100 µM | > 100 µM | > 100 µM | > 100 µM | > 100 µM | > 100 µM | > 100 µM | – | –
NC(=O)N/N=C/C(/C=N/NC(N)=O)[N+](=O)[O-] | – | > 100 µM | – | – | – | > 100 µM | – | > 100 µM | – | > 100 µM | – | > 100 µM | – | > 100 µM | – | > 100 µM | > 100 µM | –
C=C=C(CC)C(C(=O)OC)N(CC)CC (configuration not stated) | – | > 100 µM | – | – | – | > 100 µM | – | > 100 µM | – | > 100 µM | – | – | – | > 100 µM | – | > 100 µM | > 100 µM | > 100 µM
CCOC(=O)C(Cc1c[nH]c2ccc(N(CCCl)CCCl)cc12)(NC(C)=O)C(=O)OCC | 20.3 µM | 54.2 µM | 14.6 µM and 16.1 µM | 39.9 µM and 53.4 µM | 16.9 µM and 13.9 µM | 77.4 µM | 14.1 µM and 19.4 µM | 41.4 µM and 67.9 µM | 5.41 µM and 4.2 µM | 32 µM and 232 µM | 5.04 µM and 27.6 µM | 19.3 µM and 65.9 µM | 8.82 µM and 8.93 µM | 564 µM | 8.78 µM and 13.2 µM | 93.6 µM and 46.8 µM | – | –
C=C1C(=O)OC2CC1C(O)C/C(C)=C/CC/C(C)=C/C(O)CC2C (configuration not stated) | – | 9.16 µM | – | 4.95 µM | – | 4.61 µM | – | 24.8 µM | – | 26.7 µM | – | 12.2 µM | – | 4.83 µM | – | 5.62 µM | – | –
CC[C@@]1(O)C(=O)NCc2c1cc1n(c2=O)Cc2cc3c(N)cccc3nc2-1 | 5.09 µM | 38.6 µM | 11.5 µM | > 100 µM | 15.1 µM | > 100 µM | 2.03 µM | > 38.9 µM | 1.01 µM | > 46.8 µM | 9.29 µM | > 17.7 µM | 0.529 µM | 35.2 µM | 4.16 µM | > 100 µM | – | –
COc1ccccc1NC(=O)n1nc(N)c2ccccc21 | > 68.7 µM | > 100 µM | 63.6 µM | > 100 µM | > 73.4 µM | > 100 µM | > 74.7 µM | > 100 µM | 52.1 µM | > 100 µM | > 100 µM | > 100 µM | > 100 µM | > 100 µM | > 100 µM | > 100 µM | – | –
COc1cc2c3c(c1)c1cc(OC)c(OC)cc1c[n+]3CC2 | > 100 µM | > 100 µM | > 100 µM | > 100 µM | 37.2 µM | 50 µM and > 100 µM | 4.13 µM | 50 µM and 77.3 µM | – | 50 µM and > 100 µM | 16.7 µM | 50 µM and 71.3 µM | 5.66 µM | 15.6 µM and > 100 µM | 26.6 µM | > 100 µM | – | –
CO/C1=C\C(C)=C\C(C)C(O)C(C)C/C(C)=C/C=C/C(OC)C(C(C)C(O)C(C)C2(O)CC(O)C(C)C(C(C)C)O2)OC1=O (configuration not stated) | – | – | – | 11.2 µM | – | – | – | – | – | 0.0215 µM and 0.0198 µM | – | 0.0141 µM and 0.0178 µM | – | 17.6 µM | – | – | – | 25 µM
CCOC(=O)C(=Cc1ccccc1[N+](=O)[O-])C(=O)OCC | 5.6 µM | 17.3 µM | 1.83 µM | 4.47 µM | 3.27 µM | 9.39 µM | 3.26 µM | 12.8 µM | 5.38 µM | 20.1 µM | 4.01 µM | 11.9 µM | 2.85 µM | 11.3 µM | 2.12 µM | 4.85 µM | – | –
CCOC(=O)C1(Cc2ccccc2)CCCCCN1 (configuration not stated) | – | – | – | > 100 µM | – | > 100 µM | – | – | – | > 100 µM | – | – | – | > 100 µM | – | > 100 µM | > 100 µM | > 100 µM
COc1c(C(=O)O)oc2c(OC)cccc12 | – | > 100 µM | – | > 100 µM | – | > 100 µM | – | > 100 µM | – | > 100 µM | – | > 100 µM | – | > 100 µM | – | > 100 µM | – | > 100 µM
N#Cc1c(-c2ccccc2)cc(-c2ccc(Nc3nc(Nc4ccc(Cl)cc4)nc(Nc4ccc(Cl)cc4)n3)cc2)nc1N | 1.28 µM | 8.72 µM | 1.56 µM | 5.1 µM | 3.8 µM | 16.5 µM | 1.73 µM | 3.75 µM | 10.3 µM | 43.6 µM | 1.54 µM | 3.44 µM | 3.37 µM | > 100 µM | 1.91 µM | 4.82 µM | – | –
